Experimental data taken from patent US20150064305A1, “USE OF PARA NITRO AMINO DERIVATIVES IN FEED FOR REDUCING METH-ANE EMISSION IN RUMINANTS” (DSM IP ASSETS B.V., priority 2012, published 2015).

Tested on: methanogenesis in rumen liquor
Test: In vitro test for methane production (modified Hohenheim Forage value Test, HFT)
Settings: reduction in methane produced compared to control, average of two experiments
Description: A modified version of the “Hohenheim Forage value Test (HFT)” was used for testing the effect of specific compounds on the rumen functions mimicked by this in-vitro system.
Feed is given into a syringe with a composition of rumen liquor and an appropriate mixture of buffers. The solution is incubated at 39° C. After 8 hours the quantity (and composition) of methane produced is measured and put into a formula for conversion.
The feed stuff is sieved to 1 mm—usually TMR (44% concentrate, 6% hay, 37% maize silage and 13% grass silage)—and weighed exactly into 64 syringes. 4 of these syringes are the substrate controls, which display the gas production without the effect of the tested compounds. 4 other syringes are positive control, in which bromoethane sulfonate has been added to 0.1 mM. When needed, 4 syringes contain a carrier control (if the test compounds need a carrier). The remaining syringes contain the test substances, by groups of 4 syringes.
The components are mixed in a Woulff bottle in following order: • 711 ml water • 0.18 ml trace element solution • 355.5 ml buffer solution • 355.5 ml mass element solution
The completed solution is warmed up to 39° C. followed by the addition of 1.83 ml sodium salt solution and the addition of reduction solution at 36° C. The rumen liquor is added, when the indicator turns colourless.
750 ml of rumen liquor are added to approximately 1,400 ml of medium solution under continued agitation and CO2-gassing.
The diluted rumen fluid (24 ml) is added to the glass syringe. The syringes are then incubated for 8 hours at 39° C. under gentle agitation. After 8 hours, the volume of gas produced is measured, and the percentage of methane in the gas phase is determined by gas chromatography.
The food fermented was artificial TMR (44% concentrate, 6% hay, 37% maize silage and 13% grass silage). The compounds produced as described in examples 3 to 11 were added to the fermentation syringes to a concentration of 1 to 0.1% of dry matter (DM).
The same in vitro assay as described in Example 1 has been performed with a series of molecules, wherein either the amine group has been replaced or, the amine group is not in para position.

[1] = comparative compounds (Table 3), 1% DM
[2] = 0.1% DM, artificial TMR feed, 8 hours at 39° C.
[3] = 0.25% DM, artificial TMR feed, 8 hours at 39° C.
[4] = 0.5% DM, artificial TMR feed, 8 hours at 39° C.
[5] = 1% DM, artificial TMR feed, 8 hours at 39° C.

SMILES: Cc1ccc([N+](=O)[O-])cc1 [A, reference compound]
- effect on methanogenesis (%) [1]: 8%

SMILES: O=C(O)c1ccc(C(=O)Nc2ccc([N+](=O)[O-])cc2)cc1 [C, reference compound]
- effect on methanogenesis (%) [1]: 3%

SMILES: Nc1ccc([N+](=O)[O-])cc1 [Compound 1, (4-nitro-phenyl)-amine]
- effect on methanogenesis (%) [2]: 15%
- effect on methanogenesis (%) [3]: 43%
- effect on methanogenesis (%) [4]: 88%
- effect on methanogenesis (%) [5]: 100%

SMILES: CNc1ccc([N+](=O)[O-])cc1 [Compound 2, Methyl-(4-nitro-phenyl)-amine]
- effect on methanogenesis (%) [2]: 3%
- effect on methanogenesis (%) [5]: 96%

SMILES: CCNc1ccc([N+](=O)[O-])cc1 [Compound 3, Ethyl-(4-nitro-phenyl)-amine]
- effect on methanogenesis (%) [2]: 0%
- effect on methanogenesis (%) [5]: 97%

SMILES: CN(C)c1ccc([N+](=O)[O-])cc1 [Compound 4, Dimethyl-(4-nitro-phenyl)-amine]
- effect on methanogenesis (%) [2]: 0%
- effect on methanogenesis (%) [5]: 94%

SMILES: CCCNc1ccc([N+](=O)[O-])cc1 [Compound 5, (4-Nitro-phenyl)-propyl-amine]
- effect on methanogenesis (%) [2]: 5%
- effect on methanogenesis (%) [3]: 20%
- effect on methanogenesis (%) [4]: 60%
- effect on methanogenesis (%) [5]: 100%

SMILES: CC(C)Nc1ccc([N+](=O)[O-])cc1 [Compound 6, Isopropyl-(4-nitro-phenyl)-amine]
- effect on methanogenesis (%) [2]: 2%
- effect on methanogenesis (%) [5]: 99%

SMILES: O=[N+]([O-])c1ccc(NCCO)cc1 [Compound 7, 2-(4-Nitro-phenylamino)-ethanol]
- effect on methanogenesis (%) [2]: 6%
- effect on methanogenesis (%) [5]: 100%

SMILES: O=[N+]([O-])c1ccc(NCCCO)cc1 [Compound 8, 3-(4-Nitro-phenylamino)-propan-1-ol]
- effect on methanogenesis (%) [2]: 1%
- effect on methanogenesis (%) [5]: 100%

SMILES: O=[N+]([O-])c1ccc(NCc2ccccn2)cc1 [Compound 9, 4-Nitro-N-(Pyridin-2-ylmethyl)aniline]
- effect on methanogenesis (%) [2]: 3%
- effect on methanogenesis (%) [5]: 95%

SMILES: O=C(O)c1ccc(CNc2ccc([N+](=O)[O-])cc2)cc1 [Compound 10, 4-((4-Nitro-phenylamino)-methyl)-benzoic acid]
- effect on methanogenesis (%) [3]: 3%
- effect on methanogenesis (%) [4]: 21%
- effect on methanogenesis (%) [5]: 97%

SMILES: O=C(O)c1cccc(CNc2ccc([N+](=O)[O-])cc2)c1 [Compound 11, 3-((4-Nitro-phenylamino)-methyl)-benzoic acid]
- effect on methanogenesis (%) [2]: 1%
- effect on methanogenesis (%) [5]: 88%

SMILES: Nc1cccc([N+](=O)[O-])c1 [Compound B, 3-Nitro-phenylamine, reference compound]
- effect on methanogenesis (%) [1]: 7%

SMILES: O=C(O)c1ccc(COc2ccc([N+](=O)[O-])cc2)cc1 [Compound D, 4-(4-Nitro-phenoxymethyl)-benzoic acid, reference compound]
- effect on methanogenesis (%) [1]: 6%

SMILES: O=[N+]([O-])c1ccc(N2CCOCC2)cc1 [Compound F, 4-(4-Nitrophenyl)morpholine, reference compound]
- effect on methanogenesis (%) [1]: 8%
